{"source": "patent US20110301211A1", "about": "“ANTAGONISTS OF LYSOPHOSPHATIDIC ACID RECEPTORS” (priority 2008, published 2011)", "key": {"human LPA1": {"target": "T1, human LPA1 (Homo sapiens, UniProt Q92633)", "T1 construct": "the full-length cDNA for human LPA1 was obtained by PCR of the reverse transcription reaction; expressed in transfected cells", "T1 sequence (Q92633 whole entry)": "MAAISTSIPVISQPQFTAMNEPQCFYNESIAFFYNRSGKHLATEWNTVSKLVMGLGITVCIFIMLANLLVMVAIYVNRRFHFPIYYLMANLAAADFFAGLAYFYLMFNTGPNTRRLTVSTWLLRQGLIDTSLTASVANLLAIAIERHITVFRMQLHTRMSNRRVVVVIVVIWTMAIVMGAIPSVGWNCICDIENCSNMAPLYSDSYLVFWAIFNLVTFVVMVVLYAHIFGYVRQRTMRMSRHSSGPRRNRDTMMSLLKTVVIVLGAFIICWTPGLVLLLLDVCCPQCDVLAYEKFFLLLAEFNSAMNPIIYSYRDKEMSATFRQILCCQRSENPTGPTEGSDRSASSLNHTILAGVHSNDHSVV", "experiment": "HLPA1 Ca Flux assay (LPA1 calcium flux assay)", "assay_type": "cell-based", "conditions": "CHO cells expressing human LPA1, 10 nM LPA", "procedure": "A 1.1 kb cDNA encoding the human LPA1 receptor was cloned from human lung. Human lung RNA (Clontech Laboratories, Inc. USA) was reverse transcribed using the RETROscript kit (Ambion, Inc.) and the full-length cDNA for human LPA1 was obtained by PCR of the reverse transcription reaction. The nucleotide sequence of the cloned human LPA1 was determined by sequencing and confirmed to be identical to the published human LPA1 sequence (An et al. Biochem. Biophys. Res. Commun. 231:619 (1997). The cDNA was cloned into the pcDNA5/FRT expression plasmid and transfected in CHO cells using lipofectamine 2000 (Invitrogen Corp., USA). Clones stably expressing human LPA1 were selected using hygromycin and identified as cells that show Ca-influx in response to LPA.\n(§1) Human LPA1 or LPA3 expressing CHO cells are seeded at 20,000-45,000 cells per well in a 96-well poly-D-lysine coated plate one or two days before the assay. Prior to the assay, the cells are washed once with PBS and then cultured in serum-free media overnight. On the day of the assay, a calcium indicator dye (Calcium 4, Molecular Devices) in assay buffer (HBSS with Ca^2+ and Mg^2+ and containing 20 mM Hepes and 0.3% fatty-acid free human serum albumin) is added to each well and incubation continued for 1 hour at 37° C. 10 μl of test compounds in 2.5% DMSO are added to the cells and incubation continued at room temperature for 30 minutes. Cells are the stimulated by the addition of 10 nM LPA and intracellular Ca^2+ measured using the Flexstation 3 (Molecular Devices). IC50s are determined using Graphpad prism analysis of drug titration curves."}, "human LPA3": {"target": "T2, human LPA3 (Homo sapiens, UniProt Q9UBY5)", "T2 construct": "The full-length cDNA fragment for human LPA3 was obtained by PCR from the vector", "T2 sequence (Q9UBY5 1-353)": "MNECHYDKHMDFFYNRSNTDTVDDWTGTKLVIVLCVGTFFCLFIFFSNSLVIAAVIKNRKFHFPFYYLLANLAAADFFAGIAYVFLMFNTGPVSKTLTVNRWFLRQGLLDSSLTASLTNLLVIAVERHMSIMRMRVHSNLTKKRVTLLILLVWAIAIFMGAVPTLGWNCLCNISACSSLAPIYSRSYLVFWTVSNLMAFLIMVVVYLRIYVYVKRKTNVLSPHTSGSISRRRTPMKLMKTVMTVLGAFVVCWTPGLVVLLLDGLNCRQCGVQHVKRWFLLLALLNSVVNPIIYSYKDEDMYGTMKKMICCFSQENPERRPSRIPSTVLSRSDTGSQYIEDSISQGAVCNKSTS", "experiment": "HLPA3 Ca Flux assay (LPA3 calcium flux assay)", "assay_type": "cell-based", "conditions": "CHO cells expressing human LPA3, 10 nM LPA", "procedure": "A vector containing the human LPA3 receptor cDNA was obtained from the Missouri S&T cDNA Resource Center (www.cdna.org). The full-length cDNA fragment for human LPA3 was obtained by PCR from the vector. The nucleotide sequence of the cloned human LPA3 was determined by sequencing and confirmed to be identical to the published human LPA3 sequence (NCBI accession number NM 012152). The cDNA was cloned into the pcDNA5/FRT expression plasmid and transfected in CHO cells using lipofectamine 2000 (Invitrogen Corp., USA). Clones stably expressing human LPA3 were selected using hygromycin and identified as cells that show Ca-influx in response to LPA.\nas §1, with “10 μl of test compounds in 2.5% DMSO are added to the cells and incubation continued at room temperature for 30 minutes.” left out"}, "[1]": {"tested_on": "pancreatic cancer cell lines", "conditions": "cited from earlier work"}, "[2]": {"tested_on": "highly peritoneal metastatic pancreatic cancer cell line", "conditions": "cited from earlier work"}, "[3]": {"conditions": "cited from earlier work"}, "[4]": {"tested_on": "Unilateral ureteral obstruction (UUO; animal model of renal fibrosis) mice", "conditions": "LPA1 (−/−) mice: renal fibrosis significantly attenuated; cited from earlier work"}, "Female CD-1 mice": {"tested_on": "Female CD-1 mice", "experiment": "Bleomycin-induced lung fibrosis model in mice", "assay_type": "in vivo", "conditions": "acute setting (3 day)", "description": "Female CD-1 mice (Harlan, 25-30 g) are housed 4 per cage, given free access to food and water and allowed to acclimate for at least 7 days prior to test initiation. After the habituation phase, mice are lightly anesthetized with isoflurane (5% in 100% O2) and administered with bleomycin sulfate (0.01-5 U/kg, Henry Schein) via intratracheal instillation (Cuzzocrea S et al. Am J Physiol Lung Cell Mol. Physiol. 2007 May; 292(5):L1095-104. Epub 2007 Jan. 12.). Mice are returned to their cages and monitored daily for the duration of the experiment. Test compound or vehicle is delivered po, ip or sc daily. The route and frequency of dosing is based on previously determined pharmacokinetic properties. […] BALF is analyzed for concentrations of inflammatory, pro-fibrotic and tissue injury biomarkers including transforming growth factor β1, hyaluronic acid, tissue inhibitor of metalloproteinase-1, matrix matelloproteinase-7, connective tissue growth factor and lactate dehydrogenase activity, using commercially available ELISA. […] Total cell counts are then obtained using a Hemavet hematology system (Drew Scientific, Wayne, Pa.) and differential cells counts are determined using Shandon cytospin (Thermo Scientific, Waltham, Mass.). […] The data are plotted using Graphpad prism and statistical differences between groups determined."}, "Female C57BL/6 mice [5]": {"tested_on": "Female C57BL/6 mice", "experiment": "Mouse carbon tetrachloride (CCl4)-induced liver fibrosis model", "assay_type": "in vivo", "conditions": "for collagen deposition in the liver: as compared to the untreated group", "procedure": "Female C57BL/6 mice (Harlan, 20-25 g) housed 4/cage are given free access to food and water and allowed to acclimate for at least 7 days prior to test initiation. After the habituation phase, mice receive CCl4 (0.5-1.0 ml/kg body weight) diluted in corn oil vehicle (100 μL volume) via i.p. injection twice a week for 4-6 weeks. (Higazi, A. A. et al., Clin Exp Immunol. 2008 April; 152(1):163-73. Epub 2008 Feb. 14.). Control mice receive an equivalent volume of corn oil vehicle only. Test compound or vehicle is delivered po, ip or sc daily. At the end of the study (4-6 weeks after first i.p. injection of CCl4), mice are sacrificed using inhaled isoflurane and blood is drawn via cardiac puncture for subsequent analysis of ALT/AST levels. The liver is harvested, and one half of the liver is frozen at −80° C. and the other half is fixed in 10% neutral buffered formalin for histological assessment of liver fibrosis using light microscopy (10× magnification). Liver tissue homogenates are analyzed for collagen levels using Sircol (Biocolor Ltd, UK). Fixed Liver tissue is stained using hematoxylin and eosin (H&E) and trichrome and liver fibrosis is determined by quantitative, computer-assisted densitometry of collagen in liver tissue sections using light microscopy. Plasma and liver tissue lysates are also analyzed for concentrations of inflammatory, pro-fibrotic and tissue injury biomarkers including transforming growth factor β1, hyaluronic acid, tissue inhibitor of metalloproteinase-1, matrix matelloproteinase-7, connective tissue growth factor and lactate dehydrogenase activity, using commercially available ELISA. The resulting data are plotted using Graphpad prism and statistical differences between groups determined."}, "Female C57BL/6 mice [6]": {"tested_on": "Female C57BL/6 mice", "experiment": "Mouse unilateral ureteral obstruction kidney fibrosis model", "assay_type": "in vivo", "conditions": "as compared to the untreated group", "procedure": "Female C57BL/6 mice (Harlan, 20-25 g) housed 4/cage will be given free access to food and water and allowed to acclimate for at least 7 days prior to test initiation. After the habituation phase, mice undergo unilateral ureteral obstruction (UUO) surgery or sham to left kidney. Briefly, a longitudinal, upper left incision is performed to expose the left kidney. The renal artery is located and 6/0 silk thread is passed between the artery and the ureter. The thread is looped around the ureter and knotted 3 times insuring full ligation of ureter. The kidney is returned to abdomen, the abdominal muscle is sutured and the skin is stapled closed. Mice are returned to their cages and monitored daily for the duration of the experiment. Test compound or vehicle is delivered po, ip or sc daily. The route and frequency of dosing is based on previously determined pharmacokinetic properties. All animals are sacrificed using inhaled isoflurane 4, 8 or 14 days after UUO surgery. […] Kidney tissue homogenates are analyzed for collagen levels using Sircol (Biocolor Ltd, UK). Fixed kidney tissue is also stained using hematoxylin and eosin (H&E) and trichrome and kidney fibrosis is determined by quantitative, computer-assisted densitometry of collagen in […] tissue sections using light microscopy. […] The resulting data are plotted using Graphpad prism and statistical differences between groups determined."}}, "data": [{"compound": "Cc1noc(-c2ccc(-c3cccc(CC(=O)O)c3)cc2)c1NC(=O)O[C@H](C)c1ccccc1", "note": "[Compound 43, {4′-[3-Methyl-4-((R)-1-phenyl-ethoxycarbonylamino)-isoxazol-5-yl]-biphenyl-3-yl}-acetic Acid]", "values": [{"measurement": "IC50", "setting": "human LPA1", "result": "300 to 1000", "unit": "nM"}]}, {"compound": "COc1ccccc1C(C)OC(=O)Nc1c(C)noc1-c1ccc(-c2ccc(CC(=O)O)cc2)cc1", "note": "(centres unmarked) [Compound 6, (4′-{4-[1-(2-Methoxy-phenyl)-ethoxycarbonylamino]-3-methyl-isoxazol-5-yl}-biphenyl-4-yl)-acetic Acid]", "values": [{"measurement": "IC50", "setting": "human LPA3", "result": "1000 to 50000", "unit": "nM"}]}, {"compound": "Cc1noc(-c2ccc(CSCCC(=O)O)cc2)c1NC(=O)OC(C)c1ccccc1Cl", "note": "(centres unmarked) [Ki16425]", "values": [{"measurement": "in vitro migration in response to LPA and peritoneal fluid (ascites) from pancreatic cancer patients", "setting": "[1]", "result": "effectively blocked"}, {"measurement": "LPA-induced and ascites-induced invasion activity", "setting": "[2]", "result": "blocked"}, {"measurement": "metastasis to bone in vivo", "setting": "[3]", "result": "inhibit"}, {"measurement": "development of renal fibrosis in UUO mice", "setting": "[4]", "result": "closely resembled the LPA1 (−/−) mice"}]}, {"compound": "COc1ccc(C(C)OC(=O)Nc2c(C)noc2-c2ccc(-c3ccc(CC(=O)O)cc3)cc2)c(F)c1", "note": "(centres unmarked) [Compound 40, (4′-{4-[1-(2-Fluoro-4-methoxy-phenyl)-ethoxycarbonylamino]-3-methyl-isoxazol-5-yl}-biphenyl-4-yl)-acetic acid]", "values": [{"measurement": "IC50", "setting": "human LPA1", "result": "1000 to 50000", "unit": "nM"}]}, {"compound": "Cc1noc(-c2ccc(-c3ccc(CC(=O)O)cc3)cc2)c1NC(=O)O[C@H](C)c1ccccc1", "note": "[Compound 37]", "values": [{"measurement": "tissue inhibitor of metalloproteinase-1 (TIMP-1; pro-fibrotic marker) concentrations in BALF", "setting": "Female CD-1 mice", "result": "reduced"}, {"measurement": "collagen deposition in the liver", "setting": "Female C57BL/6 mice [5]", "result": "significantly reduced"}, {"measurement": "reduction of kidney fibrosis", "setting": "Female C57BL/6 mice [6]", "result": 55, "unit": "%"}]}, {"compound": "Cc1noc(-c2ccc(-c3cccc(CC(=O)O)c3)cc2)c1NC(=O)OC(C)c1ccccc1Cl", "note": "(centres unmarked) [Compound 12, (4′-{4-[1-(2-Chloro-phenyl)-ethoxycarbonylamino]-3-methyl-isoxazol-5-yl}-biphenyl-3-yl)-acetic acid]", "values": [{"measurement": "IC50", "setting": "human LPA3", "result": "300 to 1000", "unit": "nM"}]}, {"compound": "Cc1noc(-c2ccc(-c3ccc(CC(=O)O)cc3)cc2)c1NC(=O)O[C@H](C)c1ccccc1Cl", "note": "[Compound 27, (4′-{4-[(R)-1-(2-Chloro-phenyl)-ethoxycarbonylamino]-3-methyl-isoxazol-5-yl}-biphenyl-4-yl)-acetic acid]", "values": [{"measurement": "tissue inhibitor of metalloproteinase-1 (TIMP-1; pro-fibrotic marker) concentrations in BALF", "setting": "Female CD-1 mice", "result": "significantly reduced"}, {"measurement": "effect on collagen deposition compared with pirfenidone", "setting": "Female C57BL/6 mice [5]; 30 mg/kg, po, qd", "result": "same effect on collagen deposition as pirfenidone"}, {"measurement": "collagen deposition in the liver", "setting": "Female C57BL/6 mice [5]", "result": "significantly reduced"}, {"measurement": "reduction of kidney fibrosis", "setting": "Female C57BL/6 mice [6]", "result": "at least 20%"}]}, {"compound": "COc1ccc(CC(=O)O)cc1-c1ccc(-c2onc(C)c2NC(=O)OC(C)c2ccccc2Cl)cc1", "note": "(centres unmarked) [Compound 7, (4′-{4-[1-(2-Chloro-phenyl)-ethoxycarbonylamino]-3-methyl-isoxazol-5-yl}-6-methoxy-biphenyl-3-yl)-acetic Acid]", "values": [{"measurement": "IC50", "setting": "human LPA1", "result": "1000 to 50000", "unit": "nM"}]}, {"compound": "Cc1noc(-c2ccc(-c3ccc(CC(=O)NCCS(=O)(=O)O)cc3)cc2)c1NC(=O)O[C@H](C)c1ccccc1", "note": "[Compound 67, 2-(2-{4′-[3-Methyl-4-((R)-1-phenyl-ethoxycarbonylamino)-isoxazol-5-yl]-biphenyl-4-yl}-acetylamino)-ethanesulfonic Acid]", "values": [{"measurement": "IC50", "setting": "human LPA1", "result": "< 300", "unit": "nM"}]}]}
